Values of other authors as cited in patent US20050148552A1, “Methods of treating eczema” (priority 2003, published 2005).
Counter-ions that a name gives are not always drawn.

Legend:
[1] = single dose of two 100 mg minocycline HCl tablets or capsules, adult humans
[2] = 250 mg every six hours over a twenty-four hour period

For `CN(C)c1ccc(O)c2c1C[C@H]1C[C@H]3[C@H](N(C)C)C(O)=C(C(N)=O)C(=O)[C@@]3(O)C(O)=C1C2=O` [minocycline HCl], the “average minocycline serum level” value [1] is listed as 2.24 µg/mL.

In the case of `CN(C)[C@@H]1C(O)=C(C(N)=O)C(=O)[C@@]2(O)C(O)=C3C(=O)c4c(O)cccc4[C@@](C)(O)[C@H]3C[C@@H]12` [tetracycline HCl], the peak serum level [2] is given as “approximately 3 μg/ml”.
